Assay results reported in patent US11731946B2, “Broad spectrum antivirulence, anti-persistence compounds” (priority 2017, dated 2023).
pIC50: −log10 of the molar value.

Legend:
[1] = tested on: MvfR regulon; experiment: Quantification of pyocyanin (OD520nm of chloroform-extracted cultures); format: cell-based, P. aeruginosa; settings: for activity at 1 µM / activity at 10 µM / activity at 50 µM / IC50: Pseudomonas aeruginosa; for activity at 1 µM: read-out: pyocyanin @1 uM (%), compound at 1 uM; for activity at 10 µM: read-out: pyocyanin @10 uM (%), compound at 10 uM; for activity at 50 µM: read-out: pyocyanin @50 uM (%), compound at 50 uM; for pyocyanin @50 uM (%): compound at 50 uM; for IC50: read-out: IC50 pyocyanin (μM)
[2] = tested on: MvfR regulon; experiment: pqsA gene expression (pqsA-GFP reporter); format: cell-based, P. aeruginosa; settings: for activity at 10 µM: read-out: pqsA @10 uM (%), compound at 10 uM; for activity at 50 µM: read-out: pqsA @50 uM (%), compound at 50 uM
Description: Experiments were performed to identify compounds that inhibit the MvfR regulon without altering growth, ultimately attenuating P. aeruginosa infection. MvfR is a LysR-type transcriptional regulator that directs HAQs synthesis, including that of its ligands, 4-hydroxy-2-heptylquinoline (HHQ) and 3,4-dihydroxy-2-heptylquinoline (PQS).
MvfR promotes the production of HAQs by binding to and activating the pqs operon, which encodes enzymes for HAQ synthesis. Anthranilic acid (AA), derived from the phnAB, kynABU, and trpEG pathways, is the precursor for HAQs. pqsA encodes an anthranilate-coenzyme A ligase, which activates anthranilic acid and catalyzes the first committed step to HAQ production. The exact roles of PqsB and PqsC are unknown, though both show homology to acyl-carrier-proteins and both are required for HHQ and PQS production. […] The final gene of the operon, pqsE encodes for a putative hydrolase, and while the protein is not required for the synthesis of HAQs, it is necessary for pyocyanin production.
Nanomolar levels of most of these MvfR antagonists impeded the activity of MvfR and in consequence the MvfR virulence regulated ACRP functions, including: (1) the production of the important pro-acute P. aeruginosa virulence factor pyocyanin (see e.g., FIG. 9A) the efficacy of two of these potent inhibitors, D57 and D88, was also confirmed by testing many different MDR P. aeruginosa clinical isolates (see e.g., FIG. 11A-11B), providing further confidence of their inhibitory potency; (2) the expression of the genes that encode the enzymes catalyzing the synthesis of both pro-acute and pro-persistence MvfR-regulated virulence molecules, 4-hydroxyl-2-alkyl-quinolines (HAQs) and 2-aminoacetophenon (2-AA), as assessed by pqsAGFP reporter gene expression (see e.g., FIG. 9B) and HAQ production showing the levels of MvfR inducers/ligands HHQ and PQS as well as of the molecules critical for biofilm and Antibiotic tolerant/persiters cells formation HQNO and 2-AA (see e.g., FIG. 9C); (3) AT/P cell formation (see e.g., FIGS. 11A, 12A); (4) biofilm formation (see e.g., FIG. 12B); and (5) biofilm dispersal of preformed biofilm by potentiating antibiotic action (see e.g., FIG. 11B).

| SMILES | activity at 50 µM [1] [%] | activity at 10 µM ([2]; Pseudomonas aeruginosa) [%] | activity at 50 µM ([2]; Pseudomonas aeruginosa) [%] | other results |
| --- | --- | --- | --- | --- |
| N#Cc1ccc(NC(=O)C[C@H](Nc2ccc(Oc3ccccc3)cc2)C(F)(F)F)cc1 (racemic) [Compound 108] | 91 | 87 | 88.4 | activity at 1 µM [1]: 91.9%; activity at 10 µM [1]: 76.8% |
| O=C(Nc1ccc(Oc2ccccc2)cc1)[C@@H](F)C(=O)Nc1ccc(C(F)(F)F)cc1 (racemic) [Compound 115] | 7.08 | 1.05 | 1.75 | activity at 1 µM [1]: 27.1%; activity at 10 µM [1]: 11.4% |
| Cc1cc(F)ccc1NC(C)C(=O)Nc1ccc(C#N)cc1 (centres unmarked) [Compound 13] | – | – | – | pyocyanin @50 uM (%) ([1]; listed as D1): 101.56%; pqsA @50 uM (%) ([2]; compound at 50 uM, listed as D1): 88.58% |
| Cc1cc(F)ccc1NCC(=O)Nc1ccccc1Br [Compound 14] | 101 | – | 96.2 | – |
| CCc1ccccc1NCC(=O)Nc1ccc(C#N)cc1 [Compound 15] | 97.3 | – | 92 | – |
| N#Cc1ccc(NC(=O)CNc2ccc(F)cc2F)cc1 [Compound 16] | 89.1 | – | 56.3 | – |
| Cc1cc(F)ccc1NCC(=O)Nc1ccc(N2CCOCC2)cc1 [Compound 17] | 102 | – | 99.8 | – |
| N#Cc1ccc(NC(=O)CNc2cccc(F)c2)cc1 [Compound 18] | 91.3 | – | 68 | – |
| Cc1cc(F)ccc1NCC(=O)Nc1ccc(Br)cc1C [Compound 19] | 88.7 | – | 70 | – |
| CC(=O)c1ccc(NC(=O)CNc2ccc(F)cc2C)cc1 [Compound 20] | 102 | – | 97.7 | – |
| Cc1cc(F)ccc1NCC(=O)Nc1ccc(N2CCCC2=O)cc1 [Compound 21] | 107 | – | 105 | – |
| Cc1cc(F)ccc1NCC(=O)Nc1c(F)cccc1F [Compound 22] | 89.9 | – | 89.2 | – |
| CNC(=O)NC(=O)CNc1ccc(F)cc1C [Compound 23] | 101 | – | 97 | – |
| Cc1ccc(NC(=O)CNc2ccc(F)cc2C)c(Br)c1 [Compound 24] | 108 | – | 92.3 | – |
| Cc1cc(F)ccc1NCC(=O)Nc1cccc(C#N)c1 [Compound 25] | 100 | – | 90.2 | – |
| Cc1cc(F)ccc1NCC(=O)Nc1cccc([N+](=O)[O-])c1 [Compound 26] | 85.2 | – | 76.5 | – |
| COc1ccc(NC(=O)CNc2ccc(F)cc2C)cc1 [Compound 27] | 102 | – | 86.9 | – |
| N#Cc1ccc(NC(=O)CNc2ccc(Cl)cc2)cc1 [Compound 28] | 43.2 | – | 17.7 | IC50 [1]: 20.4 µM; IC50 ([2]; Pseudomonas aeruginosa, read-out: IC50 pqsA (μM)): 24.6 µM |
| Cc1cc(F)ccc1NCC(=O)NCC(F)(F)F [Compound 29] | 110 | – | 70 | – |
| Cc1ccc(F)cc1NCC(=O)Nc1ccc(C#N)cc1 [Compound 30] | 68.5 | – | 28.1 | – |
| Cc1cc(F)ccc1NCC(=O)Nc1ccc(C(=O)N(C)C)cc1 [Compound 31] | 109 | – | 99.8 | – |
| Cc1ccc(NCC(=O)N(C)c2ccccc2)c(C)c1 [Compound 32] | 111 | – | 88 | – |
| Cc1ccc(NC(=O)CNc2ccc(F)cc2C)c(C)c1 [Compound 33] | 112 | – | 87.3 | – |
| Cc1cc(F)ccc1NCC(=O)Nc1cccc(Cl)c1 [Compound 34] | 96.1 | – | 70.9 | – |
| Cc1cc(F)ccc1NCC(=O)NC1CC1 [Compound 35] | 107 | – | 92.5 | – |
| N#Cc1ccc(NCC(=O)Nc2ccc(F)cc2)cc1 [Compound 36] | 59.1 | – | 25.5 | – |

| SMILES | activity at 50 µM [1] [%] | activity at 10 µM ([2]; Pseudomonas aeruginosa) [%] | activity at 50 µM ([2]; Pseudomonas aeruginosa) [%] | other results |
| --- | --- | --- | --- | --- |
| N#Cc1ccc(NC(=O)CNc2ccccc2F)cc1 [Compound 37] | 97.3 | – | 84 | – |
| Cc1ccccc1NCC(=O)Nc1ccccc1 [Compound 38] | 102 | – | 95.4 | – |
| CC(=O)Nc1cccc(NCC(=O)Nc2ccc(C#N)cc2)c1C [Compound 39] | 93.4 | – | 99.5 | – |
| Cc1ccc(NCC(=O)Nc2ccc(C#N)cc2)cc1F [Compound 40] | 59.5 | – | 42 | – |
| Cc1ccc(NCC(=O)Nc2ccccc2)c(C)c1 [Compound 41] | 94.5 | – | 92.8 | – |
| CC(=O)c1ccccc1NC(=O)CNc1ccc(F)cc1C [Compound 42] | 91.4 | – | 94.2 | – |
| Cc1cc(NC(=O)CNc2ccc(F)cc2C)ccc1Br [Compound 43] | 68.5 | – | 47 | – |
| COc1cccc(NC(=O)CNc2ccc(F)cc2C)c1 [Compound 44] | 92.2 | – | 93.7 | – |
| CC(C)c1ccc(NCC(=O)Nc2ccc(C#N)cc2)cc1 [Compound 45] | 59.1 | – | 52.8 | – |
| N#Cc1ccc(NC(=O)CC(=O)Nc2ccccc2Br)cc1 [Compound 55] | 86.3 | 94 | – | activity at 1 µM [1]: 99%; activity at 10 µM [1]: 70.7% |
| N#Cc1ccc(NC(=O)CC(=O)Nc2cccc(Br)c2)cc1 [Compound 56] | 17.2 | 64.2 | – | activity at 1 µM [1]: 79.9%; activity at 10 µM [1]: 41.4% |
| N#Cc1ccc(NC(=O)CC(=O)Nc2ccc([N+](=O)[O-])cc2)cc1 [Compound 66] | – | 1.51 | – | pyocyanin @1 uM (%) ([1]; compound at 1 uM, listed as D51P): 61.28%; pyocyanin @10 uM (%) ([1]; compound at 10 uM, listed as D51P): 24.86%; pyocyanin @50 uM (%) ([1]; listed as D51P): 4.00%; pIC50 ([1]; read-out: IC50 pyocyanin): 6.08 |
| O=C(CC(=O)Nc1ccc(Oc2ccccc2)cc1)Nc1ccc(I)cc1 [Compound 74] | 71.8 | 86 | 81.2 | – |
| Nc1cc([N+](=O)[O-])ccc1NC(=O)CC(=O)Nc1ccc(Oc2ccccc2)cc1 [Compound 75] | 6.13 | 9.83 | – | – |
| O=C(CC(=O)Nc1ccc(Oc2ccccc2)cc1)Nc1ccc(Br)cc1 [Compound 79] | 47.7 | 64.5 | 60.5 | – |
| O=C(CC(=O)Nc1ccc(Oc2ccccc2)cc1)Nc1ccc(Cl)cc1 [Compound 82] | 26 | 28.8 | – | IC50 [1]: 0.09 µM; activity at 1 µM [1]: 40.3%; activity at 10 µM [1]: 39.9% |
| O=C(CC(=O)Nc1ccc(Oc2ccccc2)cc1)Nc1ccc(F)cc1 [Compound 83] | 33.5 | 27.7 | – | IC50 [1]: 0.83 µM; activity at 1 µM [1]: 44.7%; activity at 10 µM [1]: 41.3% |
| N#Cc1ccc(NC(=O)CC(=O)Nc2ccc(C(F)(F)F)cc2)cc1 [Compound 84] | 6.1 | 6.98 | – | IC50 [1]: 0.45 µM; activity at 1 µM [1]: 46.8%; activity at 10 µM [1]: 6.98% |
| Cc1cccc(NC(=O)CC(=O)Nc2ccc(C#N)cc2)c1 [Compound 85] | 49.7 | 84.8 | – | activity at 1 µM [1]: 94%; activity at 10 µM [1]: 75.3% |
| N#Cc1ccc(NC(=O)CC(=O)Nc2cccc(Cl)c2)cc1 [Compound 86] | 12.5 | 59.8 | – | IC50 [1]: 1.54 µM; activity at 1 µM [1]: 83.2%; activity at 10 µM [1]: 45.4% |
| N#Cc1ccc(NC(=O)CC(=O)Nc2cccc(F)c2)cc1 [Compound 87] | 30.2 | 77.8 | – | activity at 1 µM [1]: 94.6%; activity at 10 µM [1]: 65.5% |
| N#Cc1ccc(NC(=O)CC(=O)Nc2ccc(F)cn2)cc1 [Compound 88] | 48.3 | 95.1 | – | activity at 1 µM [1]: 97%; activity at 10 µM [1]: 77.7% |
| CN(C(=O)CC(=O)Nc1ccc(C#N)cc1)c1ccc(C#N)cc1 [Compound 89] | 84.8 | 98.5 | – | activity at 1 µM [1]: 95.7%; activity at 10 µM [1]: 102% |
| N#Cc1ccc(NC(=O)CC(=O)Nc2cccc(C#N)c2)cc1 [Compound 90] | 49.4 | 97.2 | – | activity at 1 µM [1]: 91.8%; activity at 10 µM [1]: 88.5% |
| N#Cc1ccc(NC(=O)CC(=O)c2ccc(F)cc2)cc1 [Compound 91] | 77.1 | 87.4 | – | activity at 1 µM [1]: 99.2%; activity at 10 µM [1]: 98.3% |
